Experiment [1] relates to HepG2. Kind of experiment: Antiproliferative activity against human HepG2 cells after 48 hrs by MTT assay. It counts as functional, cell-based. The note with it: HepG2, 48 h.
For experiment [2], the system named is HeLa. Kind of experiment: Antiproliferative activity against human HeLa cells after 48 hrs by MTT assay. It counts as functional, cell-based.
A short description of experiment [3]: Antiproliferative activity against human SW1116 cells after 48 hrs by MTT assay. It counts as functional, cell-based. The note with it: SW 1116, 48 h.
The subject of experiment [4] is BGC-823. Kind of experiment: Antiproliferative activity against human BGC823 cells after 48 hrs by MTT assay. The note with it: BGC-823, 48 h. It counts as functional, cell-based.
Experiment [5] concerns the target T1, Focal adhesion kinase 1 (Homo sapiens, UniProt Q05397). Kind of experiment: Inhibition of human recombinant full-length FAK assessed as remaining ATP after 4 hrs by Kinase-Glo-luminescence assay.
Target sequence in this assay (Q05397 whole entry): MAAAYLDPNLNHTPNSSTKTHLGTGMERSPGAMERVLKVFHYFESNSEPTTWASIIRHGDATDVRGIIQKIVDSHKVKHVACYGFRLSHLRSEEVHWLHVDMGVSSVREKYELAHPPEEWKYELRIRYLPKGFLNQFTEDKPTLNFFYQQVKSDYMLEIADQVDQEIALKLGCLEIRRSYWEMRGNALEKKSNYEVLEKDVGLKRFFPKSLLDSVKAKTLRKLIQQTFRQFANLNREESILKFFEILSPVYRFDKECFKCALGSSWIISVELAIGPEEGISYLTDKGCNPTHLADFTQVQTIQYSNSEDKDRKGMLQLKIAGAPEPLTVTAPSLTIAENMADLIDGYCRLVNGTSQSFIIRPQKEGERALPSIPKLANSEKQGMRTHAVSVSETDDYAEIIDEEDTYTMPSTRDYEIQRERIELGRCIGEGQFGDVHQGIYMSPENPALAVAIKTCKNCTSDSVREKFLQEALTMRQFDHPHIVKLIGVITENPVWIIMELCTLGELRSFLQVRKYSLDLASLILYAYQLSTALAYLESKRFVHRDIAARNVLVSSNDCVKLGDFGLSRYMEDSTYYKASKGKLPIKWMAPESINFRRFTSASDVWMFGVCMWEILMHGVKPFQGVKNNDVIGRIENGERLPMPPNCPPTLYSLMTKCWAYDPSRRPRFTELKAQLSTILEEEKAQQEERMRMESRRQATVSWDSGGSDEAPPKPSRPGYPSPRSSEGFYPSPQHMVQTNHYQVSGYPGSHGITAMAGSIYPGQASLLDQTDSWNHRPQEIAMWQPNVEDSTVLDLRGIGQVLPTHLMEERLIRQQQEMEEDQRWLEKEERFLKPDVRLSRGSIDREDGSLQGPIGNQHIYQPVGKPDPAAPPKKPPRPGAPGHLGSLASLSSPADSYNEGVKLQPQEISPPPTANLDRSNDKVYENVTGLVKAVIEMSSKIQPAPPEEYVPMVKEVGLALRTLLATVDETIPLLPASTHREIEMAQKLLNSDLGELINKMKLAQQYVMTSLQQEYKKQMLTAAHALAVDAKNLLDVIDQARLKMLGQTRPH
For experiment [6], the system named is HepG2. Kind of experiment: Induction of apoptosis in human HepG2 cells assessed as viable cells at 0.5 uM after 24 hrs using Annexin V-FITC and propidium iodide staining by flow cytometry (reference value: 96.26 %). It counts as functional. The note with it: HepG2, 24 h, read-out: Activity.
Experiment [7] relates to HepG2. Kind of experiment: Induction of apoptosis in human HepG2 cells assessed as early apoptotic cells at 0.5 uM after 24 hrs using Annexin V-FITC and propidium iodide staining by flow cytometry (reference value: 0.02 %). It counts as functional.
In experiment [8] the test system is HepG2. Kind of experiment: Induction of apoptosis in human HepG2 cells assessed as late apoptotic cells at 0.5 uM after 24 hrs using Annexin V-FITC and propidium iodide staining by flow cytometry (reference value: 0.90 %). It counts as functional.
Experiment [9] relates to HepG2. Kind of experiment: Induction of apoptosis in human HepG2 cells assessed as necrotic cells at 0.5 uM after 24 hrs using Annexin V-FITC and propidium iodide staining by flow cytometry (reference value: 2.82 %). It counts as functional.
Experiment [10] has as its system HepG2. Kind of experiment: Induction of apoptosis in human HepG2 cells assessed as viable cells at 1 uM after 24 hrs using Annexin V-FITC and propidium iodide staining by flow cytometry (reference value: 96.26 %). It counts as functional. The conditions noted are these: HepG2, 24 h, read-out: Activity.
For experiment [11], the system named is HepG2. Kind of experiment: Induction of apoptosis in human HepG2 cells assessed as early apoptotic cells at 1 uM after 24 hrs using Annexin V-FITC and propidium iodide staining by flow cytometry (reference value: 0.02 %). It counts as functional.
The subject of experiment [12] is HepG2. Kind of experiment: Induction of apoptosis in human HepG2 cells assessed as late apoptotic cells at 1 uM after 24 hrs using Annexin V-FITC and propidium iodide staining by flow cytometry (reference value: 0.90 %). It counts as functional.
For experiment [13], the system named is HepG2. Kind of experiment: Induction of apoptosis in human HepG2 cells assessed as necrotic cells at 1 uM after 24 hrs using Annexin V-FITC and propidium iodide staining by flow cytometry (reference value: 2.82 %). It counts as functional.
Experiment [14] deals with HepG2. Kind of experiment: Induction of apoptosis in human HepG2 cells assessed as viable cells at 2 uM after 24 hrs using Annexin V-FITC and propidium iodide staining by flow cytometry (reference value: 96.26 %). It counts as functional. The note with it: HepG2, 24 h, read-out: Activity.
Experiment [15] concerns HepG2. Kind of experiment: Induction of apoptosis in human HepG2 cells assessed as early apoptotic cells at 2 uM after 24 hrs using Annexin V-FITC and propidium iodide staining by flow cytometry (reference value: 0.02 %). It counts as functional.
For experiment [16], the system named is HepG2. Kind of experiment: Induction of apoptosis in human HepG2 cells assessed as late apoptotic cells at 2 uM after 24 hrs using Annexin V-FITC and propidium iodide staining by flow cytometry (reference value: 0.90 %). It counts as functional.
In experiment [17] the test system is HepG2. Kind of experiment: Induction of apoptosis in human HepG2 cells assessed as necrotic cells at 2 uM after 24 hrs using Annexin V-FITC and propidium iodide staining by flow cytometry (reference value: 2.82 %). It counts as functional.
The subject of experiment [18] is HepG2. Kind of experiment: Induction of apoptosis in human HepG2 cells assessed as viable cells at 4 uM after 24 hrs using Annexin V-FITC and propidium iodide staining by flow cytometry (reference value: 96.26 %). The note with it: HepG2, 24 h, read-out: Activity. It counts as functional.
The subject of experiment [19] is HepG2. Kind of experiment: Induction of apoptosis in human HepG2 cells assessed as early apoptotic cells at 4 uM after 24 hrs using Annexin V-FITC and propidium iodide staining by flow cytometry (reference value: 0.02 %). It counts as functional.
For experiment [20], the system named is HepG2. Kind of experiment: Induction of apoptosis in human HepG2 cells assessed as late apoptotic cells at 4 uM after 24 hrs using Annexin V-FITC and propidium iodide staining by flow cytometry (reference value: 0.90 %). It counts as functional.
Experiment [21] relates to HepG2. Kind of experiment: Induction of apoptosis in human HepG2 cells assessed as necrotic cells at 4 uM after 24 hrs using Annexin V-FITC and propidium iodide staining by flow cytometry (reference value: 2.82 %). It counts as functional.
In experiment [22] the test system is HepG2. Kind of experiment: Induction of apoptosis in human HepG2 cells assessed as cleaved caspase 3 level at 0.74 to 20 […] uM by Western blotting. It counts as functional, cell-based.
Experiment [23] relates to HepG2. Kind of experiment: Induction of apoptosis in human HepG2 cells assessed as cleaved PARP level at 0.74 to 20 […] uM by Western blotting. It counts as functional, cell-based.
The target in experiment [24] is T1, Focal adhesion kinase 1. Kind of experiment: Inhibition of FAK in human HepG2 cells at 2.22 to 20 uM by Western blot analysis. It counts as cell-based.
Target sequence in this assay (Q05397 2-1052 limits assumed): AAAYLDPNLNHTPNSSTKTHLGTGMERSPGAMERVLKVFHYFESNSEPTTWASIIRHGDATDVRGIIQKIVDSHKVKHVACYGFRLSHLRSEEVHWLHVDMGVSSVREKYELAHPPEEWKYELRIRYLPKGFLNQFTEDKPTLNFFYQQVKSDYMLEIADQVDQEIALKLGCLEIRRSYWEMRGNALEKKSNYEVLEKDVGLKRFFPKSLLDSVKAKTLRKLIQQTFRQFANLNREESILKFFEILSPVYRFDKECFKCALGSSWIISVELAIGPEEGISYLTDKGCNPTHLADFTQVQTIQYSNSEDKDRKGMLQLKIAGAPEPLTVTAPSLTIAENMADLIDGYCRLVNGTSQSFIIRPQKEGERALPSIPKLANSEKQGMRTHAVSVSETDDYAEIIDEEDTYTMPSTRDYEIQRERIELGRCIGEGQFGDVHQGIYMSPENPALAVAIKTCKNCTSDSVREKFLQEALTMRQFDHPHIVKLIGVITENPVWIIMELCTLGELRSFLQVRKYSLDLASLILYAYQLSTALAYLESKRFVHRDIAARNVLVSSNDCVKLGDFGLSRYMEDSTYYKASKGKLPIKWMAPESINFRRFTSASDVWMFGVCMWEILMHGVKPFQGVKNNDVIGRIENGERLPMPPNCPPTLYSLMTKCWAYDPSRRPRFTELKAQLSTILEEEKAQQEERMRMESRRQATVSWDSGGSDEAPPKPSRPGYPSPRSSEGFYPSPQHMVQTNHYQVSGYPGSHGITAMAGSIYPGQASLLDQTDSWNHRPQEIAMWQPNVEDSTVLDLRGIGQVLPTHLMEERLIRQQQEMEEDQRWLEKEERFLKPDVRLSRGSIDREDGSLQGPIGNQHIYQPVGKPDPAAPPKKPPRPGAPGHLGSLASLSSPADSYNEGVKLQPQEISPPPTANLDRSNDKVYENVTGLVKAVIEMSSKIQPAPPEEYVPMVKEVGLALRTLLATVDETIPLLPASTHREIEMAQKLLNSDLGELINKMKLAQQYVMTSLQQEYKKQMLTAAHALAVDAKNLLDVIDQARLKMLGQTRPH

This note sets out measurements from ChEMBL document CHEMBL1833863, “Synthesis, biological evaluation and molecular docking studies of 1,3,4-thiadiazole derivatives containing 1,4-benzodioxan as potential antitumor agents” (Bioorg Med Chem Lett, 2011).

In brackets after ≈: the same amount, converted by molar mass. Activity calls are given as the source filed them. The calls are words filed in the database; no cut-off is given here.

`O=C(Cc1ccc(Cl)cc1)Nc1nnc(-c2ccc3c(c2)OCCO3)s1`: the EC50 in [1] is 13.8 µg/mL (≈ 35.5 µM); in [2] it was 26.8 µg/mL (≈ 69 µM); in experiment [3], 40.7 µg/mL (≈ 105 µM); in experiment [4], > 100 µg/mL; in [5] it was 31.3 µM.
As to `O=C(Cc1ccc2ccccc2c1)Nc1nnc(-c2ccc3c(c2)OCCO3)s1`, the EC50 is > 100 µg/mL in experiment [1], > 100 µg/mL in experiment [2], 43.6 µg/mL (≈ 108 µM) in [3] and 67.9 µg/mL (≈ 168 µM) in [4].
As to `O=C(Nc1nnc(-c2ccc3c(c2)OCCO3)s1)c1ccccc1`, the EC50 in experiment [1] was 34.8 µg/mL (≈ 102 µM); in [2], > 100 µg/mL; in [3], 67.6 µg/mL (≈ 199 µM); in experiment [4] it was 46.1 µg/mL (≈ 136 µM); in experiment [5], 62 µM.
As to `Cc1ccc(C(=O)Nc2nnc(-c3ccc4c(c3)OCCO4)s2)cn1`, the 50% effective concentration (EC50) in [1], in [2], in experiment [3] and in experiment [4] was > 100 µg/mL each time.
`O=C(Cc1ccc(Br)cc1)Nc1nnc(-c2ccc3c(c2)OCCO3)s1`: the half-maximal effective concentration (EC50) in [1] was 42.1 µg/mL (≈ 97.5 µM); in experiment [2], 51.2 µg/mL (≈ 118 µM); in [3], > 100 µg/mL; in experiment [4] it was > 100 µg/mL; in [5], 54.9 µM.
Take `O=C(Cc1ccccc1)Nc1nnc(-c2ccc3c(c2)OCCO3)s1`: the EC50 is 18.3 µg/mL (≈ 51.7 µM) in [1]; 49.9 µg/mL (≈ 141 µM) in [2]; 51.3 µg/mL (≈ 145 µM) in [3]; 27.4 µg/mL (≈ 77.5 µM) in experiment [4]; 50.2 µM in [5].
On to `Nc1ccc(C(=O)Nc2nnc(-c3ccc4c(c3)OCCO4)s2)cc1`, for which the EC50 in experiment [1] is > 100 µg/mL; in experiment [2], > 100 µg/mL; in experiment [3] it was 41.2 µg/mL (≈ 116 µM); in experiment [4], > 100 µg/mL.
For `O=C(Nc1nnc(-c2ccc3c(c2)OCCO3)s1)c1ccccn1`, the EC50 in experiment [1] is > 100 µg/mL; in experiment [2], > 100 µg/mL; in [3], > 100 µg/mL; in experiment [4], 35.8 µg/mL (≈ 105 µM).
As for `O=c1[nH]cc(F)c(=O)[nH]1` [FLUOROURACIL], the EC50 in experiment [1] was 23.3 µg/mL (≈ 179 µM); in experiment [2] it was 31 µg/mL (≈ 238 µM); in experiment [3], 28.5 µg/mL (≈ 219 µM); in experiment [4], 17.4 µg/mL (≈ 134 µM).
Consider `O=C(Cc1ccc(F)cc1)Nc1nnc(-c2ccc3c(c2)OCCO3)s1`, for which the EC50 in experiment [1] is 23.8 µg/mL (≈ 64 µM); in [2] it was > 100 µg/mL; in experiment [3], > 100 µg/mL; in experiment [4], > 100 µg/mL; in experiment [5] it was 51.2 µM.
Consider `O=C(Nc1nnc(-c2ccc3c(c2)OCCO3)s1)c1ccncc1`, for which the EC50 in [1] is > 100 µg/mL; in experiment [2] it was > 100 µg/mL; in experiment [3], > 100 µg/mL; in [4] it was 41 µg/mL (≈ 121 µM).
Consider `CCOc1ccc(CC(=O)Nc2nnc(-c3ccc4c(c3)OCCO4)s2)cc1OCC`, for which the half-maximal effective concentration (EC50) in experiment [1], in [2], in experiment [3] and in [4] was > 100 µg/mL in each case.
With `O=C(Cc1cccc(Br)c1)Nc1nnc(-c2ccc3c(c2)OCCO3)s1`, the EC50 was 45.8 µg/mL (≈ 106 µM) in experiment [1]; 54.2 µg/mL (≈ 125 µM) in experiment [2]; > 100 µg/mL in experiment [3]; > 100 µg/mL in experiment [4]; 60.5 µM in experiment [5].
For the compound `O=C(CCc1ccccc1)Nc1nnc(-c2ccc3c(c2)OCCO3)s1`, the half-maximal effective concentration (EC50) in experiment [1] was 15.3 µg/mL (≈ 41.7 µM); in experiment [2], 32.5 µg/mL (≈ 88.3 µM); in experiment [3], 16.2 µg/mL (≈ 44 µM); in experiment [4] it was 14.2 µg/mL (≈ 38.7 µM); in experiment [5], 38 µM.
For the compound `CC(=O)c1ccc(CC(=O)Nc2nnc(-c3ccc4c(c3)OCCO4)s2)cc1`, the EC50 in [1], in experiment [2], in experiment [3] and in experiment [4] was > 100 µg/mL each time.
Consider `Cc1ccccc1C(=O)Nc1nnc(-c2ccc3c(c2)OCCO3)s1`, for which the EC50 in experiment [1], in experiment [2], in experiment [3] and in experiment [4] was > 100 µg/mL in each case.
For `O=C(Cc1cccc(Cl)c1)Nc1nnc(-c2ccc3c(c2)OCCO3)s1`, the half-maximal effective concentration (EC50) is 18.4 µg/mL (≈ 47.5 µM) in experiment [1]; 34.9 µg/mL (≈ 89.9 µM) in [2]; 47.6 µg/mL (≈ 123 µM) in experiment [3]; > 100 µg/mL in [4]; 46.7 µM in experiment [5].
With `O=C(/C=C/c1ccccc1)Nc1nnc(-c2ccc3c(c2)OCCO3)s1`, the EC50 was 10.3 µg/mL (≈ 28.1 µM) in experiment [1]; > 100 µg/mL in experiment [2]; 60.2 µg/mL (≈ 165 µM) in experiment [3]; 45.4 µg/mL (≈ 124 µM) in experiment [4]; 29.5 µM in experiment [5]. Also, the viability at 0.5 µM in [6] was 58.3%. Further, the Activity was 0.8% in experiment [7]; 8% in experiment [8]; 32.8% in [9]; 3.49% in [11]; 13.17% in [12]; 24.49% in experiment [13]. The Activity in [15] amounted to 4.03%; in experiment [16], 18%; in experiment [17] it was 27.21%; in experiment [19], 11%; in experiment [20], 23.25%; in experiment [21], 26.23%. Further, the viability at 1 µM in experiment [10] came to 58.9%. Further, in experiment [14], the viability at 2 µM was 50.8%. In addition, in experiment [18], the viability at 4 µM stood at 39.5%. In addition, the outcome in [22] and in experiment [23] was Active. Besides, the inhibition entry in [24] is “Active”.
With `O=C(Nc1nnc(-c2ccc3c(c2)OCCO3)s1)c1ccc(Cl)nc1`, the concentration giving a half-maximal response (EC50) in [1] was 15.3 µg/mL (≈ 41 µM); in [2] it was > 100 µg/mL; in experiment [3], 30.3 µg/mL (≈ 81 µM); in experiment [4], > 100 µg/mL; in [5], 36.5 µM.
Consider `COc1cccc(CC(=O)Nc2nnc(-c3ccc4c(c3)OCCO4)s2)c1`, for which the EC50 in [1], in [2], in experiment [3] and in experiment [4] was > 100 µg/mL each time.
